Data from patent US10533029B1, “Anticancer trans-diaminoplatinum(II) complexes of selenones” (KING FAHD UNIVERSITY OF PETROLEUM AND MINERALS, priority 2018, dated 2020).

Legend:
[1] = tested on: MCF7 cells; details: read-out: IC50, in vitro cytotoxicity against MCF7 cells, Mustafa (2015) and (2014); cited from earlier work
[2] = tested on: human breast cancer MDA-231 cells; assay: MTT in vitro cytotoxicity, MDA-231; format: cell-based; details: for cytotoxicity compared to cisplatin: MDA-231 (MDA-321 [sic]), MTT; for IC50: MDA-231, MTT, 72 h incubation, read-out: IC50 values against MDA-231
Protocol: (§1) Solutions of Pt(II) complexes of selenone 1-7 and cisplatin at concentrations of 1.0 μM, 5.0 μM, 10.0 μM, 25.0 μM, and 50.0 μM were prepared in Dulbecco modified eagle medium (DMEM). The human cervical cancer cell line HeLa and human breast cancer cell line MDA-231 were seeded and maintained in quadruplicate in a 96-well tissue culture plate at 5×10^4 cells per well in 200 μL of the same medium. The cancer cells were incubated for 24 hours before treatment. All compounds were dissolved in 50% DMSO. Therefore DMSO was used as a negative control. The final DMSO concentration, in each well, was less than 0.1%. The cancer cells were treated with platinum complexes of compounds 1-7 and cisplatin, and the resulting cultures were incubated for 72 h. The medium of wells was discarded and 100 μL DMEM containing (5 mg/mL) MTT (3-(4,5-dimethylthiazol-2-yl)-2,5-diphenyltetrazolium bromide) was added to each well and the cultures incubated in a CO2 incubator at 37° C. in the dark for 4 hrs. After incubation, a purple colored formazan (artificial chromogenic dye, a product of the reduction of water […] tetrazolium salts e.g., MTT by dehydrogenases and reductases) in the cells is produced and appeared as dark crystals in the bottom of the wells. The medium of culture was discarded from each well carefully to avoid disruption of the monolayer. Isopropanol (100 μL) was added in each well. The solution was thoroughly mixed in the wells to dissolve the formazan crystals which results in a purple solution. The absorbance of the 96-well plate was measured at 570 nm with Mithras 2LB943 multimode microplate reader against reagent blank.
(§2) In vitro cytotoxicity of the platinum complexes of compounds 1-7 and cisplatin it DMSO were evaluated by the MTT assay against two human cancer cells namely, human cervical cancer HeLa cells and human breast cancer MDA-231 cells. The results of cytotoxicity are expressed, in terms of IC50 and listed m Table 7. The survival of the cells as a function of concentration of the platinum complexes of compounds 1-7 are graphically presented in FIGS. 4A and 4B. […] Recently, the anticancer properties of some other platinum(II) complexes of heterocyclic selenones have been reported [Altoum et al J. Coord. Chem. 70 (2017) 1020-1031; and. Altoum et al. Polyhedron, 128, 2-8 (2017), 42].

[3] = tested on: human cervical cancer HeLa cells; assay: MTT in vitro cytotoxicity, HeLa; format: cell-based; details: for cytotoxicity compared to cisplatin: HeLa cells; for IC50: HeLa, 72 h incubation, read-out: IC50 values against HeLa
Protocol: as §1, §2

[4] = tested on: MCF7 cell line; assay: MTT in vitro cytotoxicity, cell line MCF7; format: cell-based, human

Row | Molecule | IC50 [1] [µM] | cytotoxicity compared to cisplatin [2] | IC50 [2] [µM] | cytotoxicity compared to cisplatin [3] | IC50 [3] [µM] | cytotoxicity compared to cisplatin [4]
1 | S=C1NCCCN1.S=C1NCCCN1.S=C1NCCCN1.S=C1NCCCN1.[Cl-].[Cl-].[Pt+2] [[Pt(Diaz)4]Cl2] | 19.1 |  |  |  |  | 
2 | CCN1CCNC1=[Se].CCN1CCNC1=[Se].N.N.O=[N+]([O-])[O-].O=[N+]([O-])[O-].[Pt+2] [Complex 4, [Pt(NH3)2(EtImSe)2](NO3)2] |  | enhanced cytotoxicity | 4.4 | enhanced cytotoxicity | 2.1 | 
3 | N.N.O=[N+]([O-])[O-].O=[N+]([O-])[O-].[Pt+2].[Se]=C1NCCCCN1.[Se]=C1NCCCCN1 [Complex 7, [Pt(NH3)2(DiapSe)2](NO3)2] |  |  | 5.3 |  | 5.4 | 
4 | cis-(Pt(NH3)2Cl2) [Cisplatin, reference compound] |  |  | 6.3 |  | 3.6 | 
5 | N.N.O=[N+]([O-])[O-].O=[N+]([O-])[O-].[Pt+2].[Se]=C1NCCN1.[Se]=C1NCCN1 [Complex 3, [Pt(NH3)2(ImSe)2](NO3)2] |  |  | 9.5 | comparable cytotoxicity | 3.7 | less active
6 | CCCN1CCNC1=[Se].CCCN1CCNC1=[Se].N.N.O=[N+]([O-])[O-].O=[N+]([O-])[O-].[Pt+2] [Complex 5, trans-[Pt(NH3)2(PrImSe)2](NO3)2] |  |  | 4.7 |  | 6.9 | greater cytotoxicity than cisplatin
7 | N.N.NC(N)=[Se].NC(N)=[Se].O=[N+]([O-])[O-].O=[N+]([O-])[O-].[Pt+2] [Complex 1, [Pt(NH3)2(Seu)2](NO3)2] |  | enhanced cytotoxicity | 4.3 | enhanced cytotoxicity | 3.1 | 
8 | CCN1CCNC1=S.CCN1CCNC1=S.CCN1CCNC1=S.CCN1CCNC1=S.[Cl-].[Cl-].[Pt+2] [[Pt(EtImt)4]Cl2] | 11 |  |  |  |  | 
9 | CC(C)N1CCNC1=[Se].CC(C)N1CCNC1=[Se].N.N.O=[N+]([O-])[O-].O=[N+]([O-])[O-].[Pt+2] [Complex 6] |  | enhanced cytotoxicity | 5.7 | enhanced cytotoxicity | 3.1 | 
10 | CNC(=[Se])NC.CNC(=[Se])NC.N.N.O=[N+]([O-])[O-].O=[N+]([O-])[O-].[Pt+2] [Complex 2, [Pt(NH3)2(Me2Seu)2](NO3)2] |  |  | 7.4 | more cytotoxic than cisplatin | 2.3 | less active
